Measurements published in patent publication US20040220268A1, “Compound that directly stimulates phospholipase C activity” (priority 2003, published 2004).

Molecular target: T1, PLC β3 (Homo sapiens, UniProt Q01970)
T1 sequence (Q01970 1-1234): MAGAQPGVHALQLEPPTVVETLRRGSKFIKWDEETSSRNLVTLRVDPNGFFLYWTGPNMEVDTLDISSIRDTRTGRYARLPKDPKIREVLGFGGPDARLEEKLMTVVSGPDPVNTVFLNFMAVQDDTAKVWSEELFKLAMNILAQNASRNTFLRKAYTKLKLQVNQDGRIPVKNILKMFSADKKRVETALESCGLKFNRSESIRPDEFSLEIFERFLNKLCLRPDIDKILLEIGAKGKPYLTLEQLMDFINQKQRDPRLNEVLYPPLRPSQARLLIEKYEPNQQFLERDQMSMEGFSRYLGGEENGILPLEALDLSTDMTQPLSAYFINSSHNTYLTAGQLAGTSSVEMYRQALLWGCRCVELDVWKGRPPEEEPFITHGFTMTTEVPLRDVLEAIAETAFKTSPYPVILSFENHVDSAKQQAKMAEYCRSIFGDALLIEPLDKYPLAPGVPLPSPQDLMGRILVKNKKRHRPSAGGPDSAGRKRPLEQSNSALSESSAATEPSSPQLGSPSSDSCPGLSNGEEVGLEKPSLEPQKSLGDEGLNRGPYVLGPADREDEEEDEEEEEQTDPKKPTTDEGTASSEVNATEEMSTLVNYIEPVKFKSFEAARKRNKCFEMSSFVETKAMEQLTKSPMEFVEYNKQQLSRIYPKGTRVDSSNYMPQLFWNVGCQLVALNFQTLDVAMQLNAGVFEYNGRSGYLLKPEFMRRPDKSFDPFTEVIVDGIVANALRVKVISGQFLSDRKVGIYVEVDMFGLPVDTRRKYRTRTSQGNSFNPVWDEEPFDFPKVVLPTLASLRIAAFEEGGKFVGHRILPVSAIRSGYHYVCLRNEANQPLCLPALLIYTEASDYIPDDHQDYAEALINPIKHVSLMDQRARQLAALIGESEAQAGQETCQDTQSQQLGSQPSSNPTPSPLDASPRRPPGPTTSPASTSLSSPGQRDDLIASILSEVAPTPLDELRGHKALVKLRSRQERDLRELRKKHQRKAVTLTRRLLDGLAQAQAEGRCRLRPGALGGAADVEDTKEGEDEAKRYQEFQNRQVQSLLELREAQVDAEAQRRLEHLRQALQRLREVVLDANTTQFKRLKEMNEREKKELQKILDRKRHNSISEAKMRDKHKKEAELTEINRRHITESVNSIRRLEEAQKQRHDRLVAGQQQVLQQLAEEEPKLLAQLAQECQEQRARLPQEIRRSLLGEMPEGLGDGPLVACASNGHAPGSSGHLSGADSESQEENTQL
Test: Phosphoinositide hydrolysis in vitro
Format: biochemical
Settings: 25 μM; purified isozyme
Protocol: The hydrolyzing activity of PtdIns-4,5-P2 was measured on mixed phospholipid vesicles containing 120 μM phosphatidylethanolamine, 30 μM PtdIns-4,5-P2, and 1 μCi/ml [3H] PtdIns-4,5-P2. Purified PLC β2, substrates, and the chemicals (2.5, 5, 10, 20, and 25 μM of m-3M3FBS or of o-3M3FBS) were coincubated (A), 25 μM of m-3M3FBS or o-3M3FBS, and phospholipid substrates were mixed with purified PLC β3, γ1, 2, or δ1 (B). Reactions were performed for 10 min at 37° C. in a 200 μl reaction mixture containing lipid micelles (5 μM [^3H] PtdIns-4,5-P2, 20,000 cpm). Reactions were stopped by adding 1 ml of CHCl3:CH3OH:HCl (50:50:0.3, v/v/v). Inositol trisphosphates were extracted with 0.5 ml of 1 M HCl/5 mM EGTA, and the radioactivity in the upper aqueous phase was measured. Data are presented as means ±S. E. M. of three independent experiments (A, B).
PLC activity was assayed using [^3H] PtdIns-4,5-P2 as a substrate (Min et al., 1993). PtdIns-4,5-P2-hydrolyzing activity was measured with mixed phospholipid micelles containing 120 μM phosphatidylethanolamine, 30 μM PtdIns-4,5-P2, and 1 μCi/ml [^3H] PtdIns-4,5-P2. The lipids, in chloroform, were dried under a stream of nitrogen gas, suspended in assay buffer (20 mM HEPES pH 7.0, 120 mM NaCl, 2 mM MgCl2, 40 or 100 μM CaCl2, and 1 mg/ml bovine albumin serum (Bayer, Leverkusen, Germany)), and sonicated. All proteins added to the reaction mixture were dialyzed overnight against the assay buffer. Incubation was performed for 10 min at 37° C. in a 200 μl reaction mixture containing lipid micelles (5 μM [3H] PtdIns-4,5-P2, 20,000 cpm). The reaction was stopped by adding 2 ml of CHCl3: CH3OH: HCl (50: 50: 0.3, v/v/v). The inositol triphosphates were extracted with 0.5 ml of 1 N HCl, and radioactivities in the upper aqueous phase were measured.

SMILES | activity of PLC beta3
Cc1cc(C)c(S(=O)(=O)Nc2ccccc2C(F)(F)F)c(C)c1 [o-3M3FBS, 2,4,6-Trimethyl-N-(ortho 3-trifluoromethyl-phenyl)-benzenesulfonamide, reference compound] | did not affect
Cc1cc(C)c(S(=O)(=O)Nc2cccc(C(F)(F)F)c2)c(C)c1 [m-3M3FBS, 2,4,6-Trimethyl-N-(meta 3-trifluoromethyl-phenyl)-benzenesulfonamide] | augmented the activity
